The source of these data is patent US20230138310A1 (priority 2020, published 2023).

The target of data set [1] is T1, 3CL protease of 2019 Novel Coronavirus (2019-nCoV 3CLpro) (Severe acute respiratory syndrome coronavirus 2, UniProt P0DTD1).
T1 construct: the 3CL protease of 2019 Novel Coronavirus (2019-nCoV 3CL^pro)
Nature of the data set: FRET inhibitory activity against 3CL protease of 2019 Novel Coronavirus. The class given is biochemical. Particulars: for inhibition at 1 µM: read-out: Inhibition rate (1 μM), 3CL protease of 2019 Novel Coronavirus.

Data set [2] deals with 2019-nCov. As to conditions: positive control, stated as existing value; read-out: EC50 of existing positive compound CQ against 2019-nCoV virus replication; cited from earlier work.
In data set [3] the test system is 2019-nCov. Nature of the data set: Inhibitory activity against the replication of 2019-nCov (cytopathic effect, MTS). It is filed as cell-based. Particulars: for EC50: Severe acute respiratory syndrome coronavirus 2, gradient concentrations, CQ as positive control, read-out: EC50 against 2019-nCoV virus replication; for anti-virus activity against 2019-nCoV (in words): viral level, compared with positive control CQ. In general terms: Protection from cytopathic effect is a common read-out in antiviral testing.

Data set [4] is described as follows: Half-toxic concentration (CC50) with CCK8 kit. Particulars: African green monkey, Vero E6 cells, in duplicate. The class given is cell-based. As to the method:
In this example, the half-toxic concentrations (CC50) of some compounds of the present invention to Vero E6 cells were determined with CCK8 kit in duplicate.

The mark [5] stands for this setting: FRET, tables 1A/1B, read-out: IC50 (nM) of SARS-CoV-2 3 CL protease.
Where [6] appears, read: read-out: IC50 against 2019-nCoV 3CL protease.

“And” between values parts separate entries of the source, which are not always exact repeats. Identical values can stand only once. Like-named read-outs stand apart in the source and are kept apart here.

Usually inhibition stands for the drop in the measured response relative to a control, in per cent. Regarding `O=C[C@H](C[C@@H]1CCNC1=O)NC(=O)[C@H](CC1CCCCC1)NC(=O)c1cc2c(Cl)cc(Cl)cc2[nH]1` [Compound 47], the inhibition at 1 µM in data set [1] turned out to be 90.4%.
Usually IC50 stands for the concentration needed to halve the response being measured. As to `CC(C)[C@H](NC(=O)c1ccc2ccccc2n1)C(=O)N[C@@H](Cc1ccccc1)C(=O)N[C@H](C=O)C[C@@H]1CCNC1=O` [Compound 11, N-{(S)-3-methyl-1-carbonyl-1-{{(S)-1-carbonyl-1-{{(S)-1-carbonyl-3-[(S)-2-carbonylpyrrolidin-3-yl]propan-2-yl}amino}-3-phenylpropan-2-yl}amino}butan-2-yl}quinoline-2-carboxamide], in data set [1] (setting [5]), the IC50 is 179 ± 29.4 nM. Also, in data set [1] (compound at 1 μM), the inhibition at 1 µM turned out to be 89.7%.
In the case of `CC(C)[C@H](NC(=O)c1cc2ccccc2o1)C(=O)N[C@@H](CC1CCCCC1)C(=O)N[C@H](C=O)C[C@@H]1CCNC1=O` [Compound 17, N-{(S)-3-methyl-1-carbonyl-1-{{(S)-1-carbonyl-1-{{(S)-1-carbonyl-3-[(S)-2-carbonylpyrrolidin-3-yl]propan-2-yl}amino}-3-cyclohexylpropan-2-yl}amino}butan-2-yl}benzofuran-2-carboxamide], the results for the IC50 in data set [1] (setting [5]) and in data set [1] (setting [6]) were 61 ± 12.5 nM and less than 100 nM, respectively. In data set [1] (compound at 1 μM), the inhibition at 1 µM was 106%.
In general, EC50 refers to the concentration giving half of the maximal effect. In the case of `CCN(CC)CCCC(C)Nc1ccnc2cc(Cl)ccc12` (stereo not shown) [CQ], in the data set on 2019-nCov [2], the concentration giving a half-maximal response (EC50) was 1130 nM.
In general, CC50 refers to the concentration giving 50% cytotoxicity. Take `O=C[C@H](C[C@@H]1CCNC1=O)NC(=O)[C@H](Cc1cccc(F)c1)NC(=O)c1cc2ccccc2[nH]1` [Compound 81]: in data set [1] (setting [6]), the IC50 is less than 100 nM. The EC50 in the data set with 2019-nCov [3] was 330 ± 90 nM. Also, the results for the “anti-virus activity against 2019-nCoV (in words)” value (shortened to “anti-virus activity”) with 2019-nCov [3] and with 2019-nCov [3] (listed as 2259) were “better than that of the positive control CQ” and “excellent anti-virus activity”, respectively. The 50% cytotoxic concentration (CC50) in data set [4] is greater than 100000 nM.
As for `O=C[C@H](C[C@@H]1CCNC1=O)NC(=O)[C@H](CC1CCCCC1)NC(=O)c1cnc2ccccc2n1` [Compound 59], the inhibition at 1 µM in data set [1] was found to be 86.7%.
Take `O=C[C@H](C[C@@H]1CCNC1=O)NC(=O)[C@H](Cc1ccc(F)cc1)NC(=O)c1cc2ccccc2[nH]1` [Compound 82]: the IC50 in data set [1] (setting [5]) came to 103 ± 13 nM. Also, the inhibition at 1 µM in data set [1] (compound at 1 μM) was 101%.
Taken in the same sequence, the figures for `CC(C)[C@H](NC(=O)c1cc2cc(Cl)ccc2o1)C(=O)N[C@@H](CC1CCCCC1)C(=O)N[C@H](C=O)C[C@@H]1CCNC1=O` [Compound 20, 5-Chloro-N-{(S)-3-methyl-1-carbonyl-1-{{(S)-1-carbonyl-1-{{(S)-1-carbonyl-3-[(S)-2-carbonylpyrrolidin-3-yl]propan-2-yl}amino}-3-cyclohexylpropan-2-yl}amino}butan-2-yl}benzofuran-2-carboxamide] were 150 ± 9.55 nM and 101%.
Take `O=C[C@H](C[C@@H]1CCNC1=O)NC(=O)[C@H](Cc1ccccc1)NC(=O)c1cc2cc(F)ccc2[nH]1` [Compound 45]: the inhibition at 1 µM in data set [1] worked out at 85.2%.
`O=C[C@H](C[C@@H]1CCNC1=O)NC(=O)[C@H](CC1CCCCC1)NC(=O)c1cc2c(F)cccc2[nH]1` [Compound 51]: the inhibition at 1 µM in data set [1] came out at 84.6%.
On to `CC(C)[C@H](NC(=O)c1cc2ccccc2[nH]1)C(=O)N[C@@H](CC1CCCCC1)C(=O)N[C@H](C=O)C[C@@H]1CCNC1=O` [Compound 5, N-{(S)-3-methyl-1-carbonyl-1-{{(S)-1-carbonyl-1-{{(S)-1-carbonyl-3-[(S)-2-carbonylpyrrolidin-3-yl]propan-2-yl}amino}-3-cyclohexylpropan-2-yl}amino}butan-2-yl}indole-2-carboxamide], for which the IC50 in data set [1] (setting [5]) was 33.6 ± 3.45 nM; in data set [1] (setting [6]), less than 100 nM. In addition, in data set [1] (compound at 1 μM), the inhibition at 1 µM was 95.7%.
For the compound `CC(C)[C@H](NC(=O)c1cc2cccc(Br)c2o1)C(=O)N[C@@H](CC1CCCCC1)C(=O)N[C@H](C=O)C[C@@H]1CCNC1=O` [Compound 18, 7-Bromo-N-{(S)-3-methyl-1-carbonyl-1-{{(S)-1-carbonyl-1-{{(S)-1-carbonyl-3-[(S)-2-carbonylpyrrolidin-3-yl]propan-2-yl}amino}-3-cyclohexylpropan-2-yl}amino}butan-2-yl}benzofuran-2-carboxamide], the IC50 in data set [1] (setting [5]) is 238 ± 18.7 nM. Moreover, in data set [1] (compound at 1 μM), the inhibition at 1 µM turned out to be 97.8%.
`O=C[C@H](C[C@@H]1CCNC1=O)NC(=O)[C@H](CC1CCCCC1)NC(=O)c1nc2ccccc2[nH]1` [Compound 57]: in data set [1], the inhibition at 1 µM was 92.3%.
For `O=C[C@H](C[C@@H]1CCNC1=O)NC(=O)[C@H](Cc1cccc(F)c1)NC(=O)c1cc2c(F)ccc(F)c2[nH]1` [Compound 83, 4,7-Difluoron-{(S)-1-carbonyl-1-{{(S)-1-carbonyl-3-[(S)-2-carbonylpyrrolidin-3-yl]propan-2-yl}amino}-3-3fluorophenylpropan-2-yl}-1H-indole-2-carboxamide], the IC50 in data set [1] (setting [5]) was 113 ± 9 nM. In data set [1] (compound at 1 μM), the inhibition at 1 µM stood at 97.8%.
For the compound `Cn1c(C(=O)N[C@@H](CC2CCCCC2)C(=O)N[C@H](C=O)C[C@@H]2CCNC2=O)cc2ccccc21` [Compound 49], the inhibition at 1 µM in data set [1] came to 91.2%.
The same measure, in the same setting: the figure for `CC(C)[C@H](NC(=O)c1cc2ccccc2[nH]1)C(=O)N[C@@H](CC1CCC(F)C(F)C1)C(=O)N[C@H](C=O)C[C@@H]1CCNC1=O` (stereo partly shown) [Compound 35] is 94.3%.
Take `O=C[C@H](C[C@@H]1CCNC1=O)NC(=O)[C@H](Cc1ccc(F)c(F)c1)NC(=O)c1cc2ccccc2[nH]1` [Compound 12]: the IC50 in data set [1] (setting [5]) was 87 ± 8 nM; in data set [1] (setting [6]), less than 100 nM. The inhibition at 1 µM in data set [1] (compound at 1 μM) amounted to 103%.
`O=C[C@H](C[C@@H]1CCNC1=O)NC(=O)[C@H](Cc1ccccc1)NC(=O)c1cc2ccc(F)cc2[nH]1` [Compound 46]: the inhibition at 1 µM in data set [1] came to 89.3%.
Regarding `CC(C)[C@H](NC(=O)c1ccc2ccccc2n1)C(=O)N[C@@H](CC1CCCCC1)C(=O)N[C@H](C=O)C[C@@H]1CCNC1=O` [Compound 16, N-{(S)-3-methyl-1-carbonyl-1-{{(S)-1-carbonyl-1-{{(S)-1-carbonyl-3-[(S)-2-carbonylpyrrolidin-3-yl]propan-2-yl}amino}-3-cyclohexylpropan-2-yl}amino}butan-2-yl}quinoline-2-carboxamide], the IC50 in data set [1] (setting [5]) was 74 nM; in data set [1] (setting [6]), < 100 nM and 73.5 nM. Also, in data set [1] (compound at 1 μM), the inhibition at 1 µM is 89.1%. The “anti-virus activity” value in the data set on 2019-nCov [3] is recorded as “excellent anti-virus activity”. The CC50 in data set [4] was greater than 100000 nM.
As for `O=C[C@H](C[C@@H]1CCNC1=O)NC(=O)[C@H](CC1CCCCC1)NC(=O)c1cc2ccccc2[nH]1` [Compound 48], in the data set on 2019-nCov [3], the EC50 was determined as 290 nM and the “anti-virus activity” value is “better than that of the positive control CQ”. Besides, the “anti-virus activity” value with 2019-nCov [3] (listed as 2234) is on record as “excellent anti-virus activity”. The compound also registered a cytotoxic concentration (CC50) in data set [4] greater than 100000 nM.
`CC(C)[C@H](NC(=O)c1cc2ccccc2o1)C(=O)N[C@@H](Cc1ccccc1)C(=O)N[C@H](C=O)C[C@@H]1CCNC1=O` [Compound 10, N-{(S)-3-methyl-1-carbonyl-1-{{(S)-1-carbonyl-1-{{(S)-1-carbonyl-3-[(S)-2-carbonylpyrrolidin-3-yl]propan-2-yl}amino}-3-phenylpropan-2-yl}amino}butan-2-yl}benzofuran-2-carboxamide]: the half-inhibitory concentration (IC50) is 67.5 ± 13.9 nM in data set [1] (setting [5]) and less than 100 nM in data set [1] (setting [6]). The inhibition at 1 µM in data set [1] (compound at 1 μM) is 88.2%.
In the case of `CC(C)[C@H](NC(=O)c1cc2ccccc2[nH]1)C(=O)N[C@@H](Cc1ccccc1)C(=O)N[C@H](C=O)C[C@@H]1CCNC1=O` [Compound 9, N-{(S)-3-methyl-1-carbonyl-1-{{(S)-1-carbonyl-1-{{(S)-1-carbonyl-3-[(S)-2-carbonylpyrrolidin-3-yl]propan-2-yl}amino}-3-phenylpropan-2-yl}amino}butan-2-yl}indole-2-carboxamide], the half-maximal inhibitory concentration (IC50) in data set [1] (setting [5]) is 68.1 ± 12.5 nM; in data set [1] (setting [6]), less than 100 nM. Besides, the inhibition at 1 µM in data set [1] (compound at 1 μM) amounted to 95.8%.
Take `O=C[C@H](C[C@@H]1CCNC1=O)NC(=O)[C@H](CC1CCCCC1)NC(=O)c1cc2ccccc2s1` [Compound 56]: the inhibition at 1 µM in data set [1] is 81.3%.
With `COc1ccc2[nH]c(C(=O)N[C@@H](CC3CCCCC3)C(=O)N[C@H](C=O)C[C@@H]3CCNC3=O)cc2c1` [Compound 50], the inhibition at 1 µM in data set [1] turned out to be 89.1%.
On to `Cc1cc(C(=O)N[C@H](C(=O)N[C@@H](CC2CCCCC2)C(=O)N[C@H](C=O)C[C@@H]2CCNC2=O)C(C)C)no1` [Compound 6, 5-Methyl-N-{(S)-3-methyl-1-carbonyl-1-{{(S)-1-carbonyl-1-{{(S)-1-carbonyl-3-[(S)-2-carbonylpyrrolidin-3-yl]propan-2-yl}amino}-3-cyclohexylpropan-2-yl}amino}butan-2-yl}isoxazole-3-carboxamide], for which the IC50 in data set [1] (setting [5]) is 48.5 ± 3.17 nM; in data set [1] (setting [6]), less than 100 nM. Besides, the inhibition at 1 µM in data set [1] (compound at 1 μM) stood at 95.8%.
Take `Cc1cc2ccccc2nc1C(=O)N[C@H](C(=O)N[C@@H](CC1CCCCC1)C(=O)N[C@H](C=O)C[C@@H]1CCNC1=O)C(C)C` [Compound 19, 3-Methyl-N-{(S)-3-methyl-1-carbonyl-1-{{(S)-1-carbonyl-1-{{(S)-1-carbonyl-3-[(S)-2-carbonylpyrrolidin-3-yl]propan-2-yl}amino}-3-cyclohexylpropan-2-yl}amino}butan-2-yl}quinoline-2-carboxamide]: the IC50 in data set [1] (setting [5]) is 62.7 ± 8.97 nM; in data set [1] (setting [6]) it was less than 100 nM. The inhibition at 1 µM in data set [1] (compound at 1 μM) was found to be 98.3%.
Turning to `CC(C)[C@H](NC(=O)c1cc2ccccc2s1)C(=O)N[C@@H](CC1CCCCC1)C(=O)N[C@H](C=O)C[C@@H]1CCNC1=O` [Compound 24], the IC50 in data set [1] (setting [5]) stood at 132 ± 14.7 nM. For the same compound, the inhibition at 1 µM in data set [1] (compound at 1 μM) came to 93.3%.
